# Reference: ChEMBL document CHEMBL1201862, “PubChem BioAssay data set” (2004)
# Activity calls are given as the source filed them.
# Columns and labels:
# [1] = P. falciparum late gametocyte killing, dose response, luminescence (AID 1117278); format: functional, cell-based;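 also: gametocytes exposed to compound for 24 hours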
# [2] = Jurkat T cell cytotoxicity, dose response, cytotoxicity control for P. falciparum gametocyte viability project, luminescence (AID 1117277); format: functional, cell-based;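 also: potency reflects loss of cellular ATP meaning fewer viable cells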
# H9c2 = experiment: cells; format: functional, cell-based; details: Rattus norvegicus, H9c2, Myocardium;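 also: confirmatory concentration-response retest of ultra-high-throughput screening hits for modulation of myocardial damage; cell death induced by hydrogen peroxide oxidative stress; compound pretreatment for 60 min then peroxide exposure for 2 h; potency is for protecting the cells against peroxide damage rather than for killing them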
# [3] = biological target: Mitogen-activated protein kinase 10 (Homo sapiens, UniProt P53779); experiment: Dose response biochemical screening assay for inhibitors of c-Jun N-Terminal Kinase 3 (JNK3). [Related pubchem assays: 746 ]
# Mitogen-activated protein kinase 10, sequence (P53779 whole entry): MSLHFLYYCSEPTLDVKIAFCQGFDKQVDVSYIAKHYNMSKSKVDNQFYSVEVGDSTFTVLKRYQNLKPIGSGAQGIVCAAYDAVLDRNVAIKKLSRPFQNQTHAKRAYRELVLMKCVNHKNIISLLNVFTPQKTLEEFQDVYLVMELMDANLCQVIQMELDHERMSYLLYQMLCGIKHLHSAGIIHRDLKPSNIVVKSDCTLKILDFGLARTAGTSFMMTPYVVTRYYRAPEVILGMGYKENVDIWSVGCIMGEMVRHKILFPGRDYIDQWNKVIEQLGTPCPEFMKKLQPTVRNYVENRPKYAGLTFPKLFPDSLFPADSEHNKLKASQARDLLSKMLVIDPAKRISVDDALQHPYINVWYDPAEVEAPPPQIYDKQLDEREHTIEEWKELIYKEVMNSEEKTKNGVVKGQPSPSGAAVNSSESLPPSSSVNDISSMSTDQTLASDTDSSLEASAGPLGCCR
# [4] = THP-1 cell cytotoxicity, dose response, cytotoxicity control for non-replicating M. tuberculosis project (AID 489025); format: functional
# cells = format: functional
# [5] = cytotoxicity in KRAS-transformed pancreatic duct cells, primary screen, cell-based, fluorescence, HTS (AID 431); format: functional; details: Homo sapiens;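 also: cell line used: HPDE-C7K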
# [6] = microbe, parasite or virus in culture; format: functional; details: Mycobacterium tuberculosis
# [7] = cytotoxicity in HPDE-C7 cells, cell-based, fluorescence, HTS (AID 430); format: functional; details: Homo sapiens
# [8] = biological target: T1, Heat shock factor protein 1 (Mus musculus, UniProt P38532); experiment: inhibition of MG132-induced HSE-luciferase signal, confirmation, cell-based, NIH3T3, luminescence, dose retest (AID 2382); format: functional;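 also: NIH3T3 fibroblasts with HSF1-driven luciferase reporter stressed by proteasome inhibitor MG132; luminescence from HSF1-driven luciferase expression after 8 hours of MG132 stress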
# T1 sequence (P38532 whole entry): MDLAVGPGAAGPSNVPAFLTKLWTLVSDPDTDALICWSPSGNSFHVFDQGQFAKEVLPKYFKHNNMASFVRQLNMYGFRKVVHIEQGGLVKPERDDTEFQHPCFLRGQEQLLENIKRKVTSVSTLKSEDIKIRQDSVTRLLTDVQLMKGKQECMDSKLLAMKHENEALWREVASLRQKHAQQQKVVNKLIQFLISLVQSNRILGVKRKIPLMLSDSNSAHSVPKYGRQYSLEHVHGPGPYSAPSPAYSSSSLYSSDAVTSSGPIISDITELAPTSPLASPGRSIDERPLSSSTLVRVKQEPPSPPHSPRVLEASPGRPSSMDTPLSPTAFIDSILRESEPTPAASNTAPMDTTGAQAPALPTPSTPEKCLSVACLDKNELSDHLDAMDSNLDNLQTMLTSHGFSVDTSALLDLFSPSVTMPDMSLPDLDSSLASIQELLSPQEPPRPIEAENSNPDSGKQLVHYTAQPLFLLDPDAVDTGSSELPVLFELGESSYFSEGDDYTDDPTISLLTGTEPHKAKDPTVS
# [9] = biological target: Luciferin 4-monooxygenase (Photinus pyralis, UniProt P08659); experiment: Counter Screen for Luciferase-based Assay Positives. [Related pubchem assays: 620, 618, 411 ]
# HT-1080 = experiment: cytotoxicity in HT1080 fibrosarcoma cells, cell-based, fluorescence readout (AID 620); format: functional; details: Homo sapiens
# [10] = biological target: Glyceraldehyde-3-phosphate dehydrogenase (Homo sapiens, UniProt P04406)
# Glyceraldehyde-3-phosphate dehydrogenase, sequence (P04406 whole entry): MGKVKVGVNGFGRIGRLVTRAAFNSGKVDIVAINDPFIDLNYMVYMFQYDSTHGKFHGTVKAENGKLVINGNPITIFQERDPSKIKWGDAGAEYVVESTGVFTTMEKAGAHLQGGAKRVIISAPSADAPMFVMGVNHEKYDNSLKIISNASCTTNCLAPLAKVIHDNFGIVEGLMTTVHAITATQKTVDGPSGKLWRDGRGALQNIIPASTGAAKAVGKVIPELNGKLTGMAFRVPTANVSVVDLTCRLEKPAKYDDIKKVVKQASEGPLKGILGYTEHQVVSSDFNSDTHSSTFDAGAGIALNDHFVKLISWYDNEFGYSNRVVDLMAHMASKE
# [11] = biological target: T2, Microphthalmia-associated transcription factor (Homo sapiens, UniProt O75030); experiment: TRPM1 promoter luciferase signal decrease, dose response, MITF inhibitor project, cell-based, SK-MEL-5, cherry-picked, set 3 (AID 493073); format: functional
# T2 sequence (O75030 whole entry): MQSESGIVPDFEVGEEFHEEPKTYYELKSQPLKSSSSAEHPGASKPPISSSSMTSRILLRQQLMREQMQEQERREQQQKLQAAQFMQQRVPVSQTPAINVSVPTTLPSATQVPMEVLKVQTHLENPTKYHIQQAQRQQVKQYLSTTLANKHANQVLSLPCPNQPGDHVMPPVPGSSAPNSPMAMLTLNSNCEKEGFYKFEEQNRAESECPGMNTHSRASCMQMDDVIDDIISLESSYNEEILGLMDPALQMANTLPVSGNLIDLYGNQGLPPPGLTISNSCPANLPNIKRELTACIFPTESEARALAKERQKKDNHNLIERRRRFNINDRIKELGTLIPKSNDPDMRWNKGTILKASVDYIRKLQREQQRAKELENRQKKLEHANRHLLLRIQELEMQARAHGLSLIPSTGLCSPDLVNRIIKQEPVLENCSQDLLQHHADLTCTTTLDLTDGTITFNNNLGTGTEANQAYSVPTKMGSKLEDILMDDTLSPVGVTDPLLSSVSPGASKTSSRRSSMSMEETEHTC
# [12] = HEK293T cytotoxicity, dose response, cytotoxicity control for miR-122 modulator project, cell-based, inhibitor set, cherry-pick, set 2 (AID 720697); format: functional
# Protein skinhead-1 = biological target: T3, Protein skinhead-1 (Caenorhabditis elegans, UniProt P34707); format: functional
# T3 sequence (P34707 whole entry): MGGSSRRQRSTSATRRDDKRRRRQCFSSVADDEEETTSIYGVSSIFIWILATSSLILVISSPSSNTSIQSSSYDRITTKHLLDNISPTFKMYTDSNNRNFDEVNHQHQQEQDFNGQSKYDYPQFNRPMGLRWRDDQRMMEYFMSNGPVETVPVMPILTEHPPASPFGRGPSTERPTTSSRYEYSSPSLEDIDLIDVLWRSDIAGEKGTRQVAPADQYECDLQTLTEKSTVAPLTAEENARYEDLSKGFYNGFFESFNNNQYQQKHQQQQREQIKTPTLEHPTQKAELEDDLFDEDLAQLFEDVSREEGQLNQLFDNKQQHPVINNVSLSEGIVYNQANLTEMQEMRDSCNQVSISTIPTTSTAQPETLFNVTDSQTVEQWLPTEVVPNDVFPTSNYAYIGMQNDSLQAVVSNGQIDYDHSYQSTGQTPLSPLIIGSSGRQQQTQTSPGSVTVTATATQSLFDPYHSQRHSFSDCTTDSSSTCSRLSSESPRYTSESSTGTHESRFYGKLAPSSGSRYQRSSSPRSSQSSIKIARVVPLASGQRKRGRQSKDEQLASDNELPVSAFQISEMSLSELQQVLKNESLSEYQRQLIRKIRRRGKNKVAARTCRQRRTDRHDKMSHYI
# [13] = cytotoxicity toward NIH3T3 fibroblasts, dose response, counter-screen, cell-based, ATP luminescence, mouse fibroblasts (AID 2010); format: functional;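 also: cells exposed to compound for about 90 hours before reading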
# [14] = inhibitors of intracellular T. cruzi replication, confirmation, NIH3T3 host cells, beta-gal luminescence (AID 2044); format: functional, cell-based;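 also: intracellular parasites grown in NIH/3T3 mouse fibroblasts as host cells; luminescent beta-galactosidase reporter signal from transgenic T. cruzi replicating inside host cells; inhibitors lower the luminescence signal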
# [15] = Luminescence Cell-Based Dose Retest to Confirm Inhibitors of Cancer Stem Cells. [Related pubchem assays (depositor defined):AID2717, AID2721]; format: functional; details: Homo sapiens
# [16] = biological target: T4, Histone-lysine N-methyltransferase NSD2 (Homo sapiens, UniProt O96028); format: biochemical
# T4 sequence (O96028 whole entry): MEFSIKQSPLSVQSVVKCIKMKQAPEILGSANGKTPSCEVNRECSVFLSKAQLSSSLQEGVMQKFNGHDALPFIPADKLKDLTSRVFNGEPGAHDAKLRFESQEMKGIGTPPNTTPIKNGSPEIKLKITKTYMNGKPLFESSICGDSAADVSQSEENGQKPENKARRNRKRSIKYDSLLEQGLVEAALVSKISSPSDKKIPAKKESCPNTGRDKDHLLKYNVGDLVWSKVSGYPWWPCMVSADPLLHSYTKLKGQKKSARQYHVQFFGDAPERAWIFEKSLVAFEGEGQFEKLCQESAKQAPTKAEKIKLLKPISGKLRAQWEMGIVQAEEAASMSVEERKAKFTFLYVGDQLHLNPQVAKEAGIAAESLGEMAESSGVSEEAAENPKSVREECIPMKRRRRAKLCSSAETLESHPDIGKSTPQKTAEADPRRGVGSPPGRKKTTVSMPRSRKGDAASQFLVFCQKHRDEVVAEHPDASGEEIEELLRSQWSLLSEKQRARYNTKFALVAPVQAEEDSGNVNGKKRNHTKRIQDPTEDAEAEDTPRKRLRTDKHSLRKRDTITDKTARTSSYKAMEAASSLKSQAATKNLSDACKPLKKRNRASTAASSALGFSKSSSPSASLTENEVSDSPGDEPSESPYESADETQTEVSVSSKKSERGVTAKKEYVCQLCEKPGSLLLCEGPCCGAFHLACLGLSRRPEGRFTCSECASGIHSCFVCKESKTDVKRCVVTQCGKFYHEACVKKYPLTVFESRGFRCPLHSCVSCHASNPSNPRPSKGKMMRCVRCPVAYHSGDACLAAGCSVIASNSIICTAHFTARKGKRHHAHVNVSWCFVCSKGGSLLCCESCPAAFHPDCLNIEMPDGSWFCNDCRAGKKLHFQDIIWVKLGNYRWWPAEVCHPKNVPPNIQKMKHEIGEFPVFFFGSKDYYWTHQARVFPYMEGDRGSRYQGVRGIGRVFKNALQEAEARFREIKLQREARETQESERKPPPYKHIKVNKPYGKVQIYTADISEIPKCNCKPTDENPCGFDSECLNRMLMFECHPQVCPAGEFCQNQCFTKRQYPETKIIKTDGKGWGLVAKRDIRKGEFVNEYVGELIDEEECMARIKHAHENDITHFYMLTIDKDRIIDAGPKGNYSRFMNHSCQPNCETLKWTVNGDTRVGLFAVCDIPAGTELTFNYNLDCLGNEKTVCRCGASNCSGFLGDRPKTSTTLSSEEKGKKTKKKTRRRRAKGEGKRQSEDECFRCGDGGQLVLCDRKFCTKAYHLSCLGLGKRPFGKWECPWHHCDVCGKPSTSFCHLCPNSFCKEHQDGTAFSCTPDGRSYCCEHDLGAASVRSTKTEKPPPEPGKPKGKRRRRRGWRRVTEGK
# [17] = biological target: Peroxisome proliferator-activated receptor gamma/Nuclear receptor coactivator 3 (Homo sapiens, UniProt P37231); format: functional;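 also: agonist potency for raising coactivator recruitment to the receptor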
# [18] = biological target: Peroxisome proliferator-activated receptor gamma/Nuclear receptor coactivator 2 (Homo sapiens, UniProt P37231); format: functional;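 also: agonist potency for raising coactivator recruitment to the receptor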
# Peroxisome proliferator-activated receptor gamma/Nuclear receptor coactivator 2, sequence (P37231 whole entry): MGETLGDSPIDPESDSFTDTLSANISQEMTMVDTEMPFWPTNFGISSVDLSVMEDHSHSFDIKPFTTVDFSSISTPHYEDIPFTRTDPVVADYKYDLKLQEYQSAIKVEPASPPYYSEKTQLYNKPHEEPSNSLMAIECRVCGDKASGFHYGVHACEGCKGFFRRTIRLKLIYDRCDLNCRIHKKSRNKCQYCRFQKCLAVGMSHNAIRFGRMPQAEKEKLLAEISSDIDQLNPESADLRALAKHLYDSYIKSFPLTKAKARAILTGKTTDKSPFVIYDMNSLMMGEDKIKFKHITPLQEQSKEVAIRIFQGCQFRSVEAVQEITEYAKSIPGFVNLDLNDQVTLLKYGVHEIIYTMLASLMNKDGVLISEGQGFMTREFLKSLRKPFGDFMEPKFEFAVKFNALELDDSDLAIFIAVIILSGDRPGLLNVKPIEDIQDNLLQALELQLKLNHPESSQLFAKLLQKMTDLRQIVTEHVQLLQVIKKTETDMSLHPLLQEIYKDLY
# Peroxisome proliferator-activated receptor gamma/Nuclear receptor coactivator 2, sequence (Q15596 whole entry, further chain): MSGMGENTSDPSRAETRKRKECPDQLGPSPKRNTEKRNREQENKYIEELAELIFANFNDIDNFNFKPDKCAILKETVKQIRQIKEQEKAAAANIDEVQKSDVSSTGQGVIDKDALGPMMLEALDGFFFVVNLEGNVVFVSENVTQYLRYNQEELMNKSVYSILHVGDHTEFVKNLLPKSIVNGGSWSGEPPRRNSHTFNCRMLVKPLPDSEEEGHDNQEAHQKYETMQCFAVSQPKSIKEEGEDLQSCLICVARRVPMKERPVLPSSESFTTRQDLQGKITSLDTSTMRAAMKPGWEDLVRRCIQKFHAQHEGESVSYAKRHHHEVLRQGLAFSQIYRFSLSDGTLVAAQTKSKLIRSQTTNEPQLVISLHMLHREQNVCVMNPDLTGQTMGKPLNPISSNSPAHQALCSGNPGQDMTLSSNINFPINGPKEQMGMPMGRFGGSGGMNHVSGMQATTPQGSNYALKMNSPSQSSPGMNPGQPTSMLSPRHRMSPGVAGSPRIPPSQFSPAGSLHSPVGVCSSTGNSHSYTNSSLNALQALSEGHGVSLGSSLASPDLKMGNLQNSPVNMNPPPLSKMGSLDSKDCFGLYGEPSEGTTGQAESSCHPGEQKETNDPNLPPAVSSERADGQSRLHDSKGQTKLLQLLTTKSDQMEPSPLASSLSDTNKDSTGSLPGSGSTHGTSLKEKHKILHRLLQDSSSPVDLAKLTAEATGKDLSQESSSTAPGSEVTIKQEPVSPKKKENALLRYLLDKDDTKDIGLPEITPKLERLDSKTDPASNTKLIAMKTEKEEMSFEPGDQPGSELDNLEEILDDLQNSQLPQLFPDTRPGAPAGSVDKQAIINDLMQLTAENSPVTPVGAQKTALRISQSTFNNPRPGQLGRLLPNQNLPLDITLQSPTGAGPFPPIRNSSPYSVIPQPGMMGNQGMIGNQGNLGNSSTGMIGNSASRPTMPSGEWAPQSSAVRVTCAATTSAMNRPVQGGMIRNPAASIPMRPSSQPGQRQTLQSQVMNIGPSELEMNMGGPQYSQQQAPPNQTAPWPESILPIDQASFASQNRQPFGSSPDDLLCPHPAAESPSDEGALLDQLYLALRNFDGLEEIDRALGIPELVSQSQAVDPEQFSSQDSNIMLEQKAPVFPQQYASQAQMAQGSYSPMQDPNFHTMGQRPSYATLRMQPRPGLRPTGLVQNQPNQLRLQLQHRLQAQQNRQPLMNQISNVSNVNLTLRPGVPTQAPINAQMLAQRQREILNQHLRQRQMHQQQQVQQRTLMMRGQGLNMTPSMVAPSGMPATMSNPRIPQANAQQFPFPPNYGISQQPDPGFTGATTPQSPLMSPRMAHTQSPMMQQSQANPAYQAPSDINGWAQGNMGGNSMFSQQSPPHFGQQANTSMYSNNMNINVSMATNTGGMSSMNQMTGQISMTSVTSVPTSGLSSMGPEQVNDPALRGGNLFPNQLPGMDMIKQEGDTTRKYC
# [19] = biological target: Peroxisome proliferator-activated receptor gamma/Nuclear receptor coactivator 1 (Homo sapiens, UniProt P37231); format: functional;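 also: agonist potency as compounds enhance coactivator SRC-1 recruitment to PPARgamma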
# Peroxisome proliferator-activated receptor gamma/Nuclear receptor coactivator 1, sequence (P37231 whole entry): as the sequence (P37231 whole entry) above
# Peroxisome proliferator-activated receptor gamma/Nuclear receptor coactivator 1, sequence (Q15788 whole entry, further chain): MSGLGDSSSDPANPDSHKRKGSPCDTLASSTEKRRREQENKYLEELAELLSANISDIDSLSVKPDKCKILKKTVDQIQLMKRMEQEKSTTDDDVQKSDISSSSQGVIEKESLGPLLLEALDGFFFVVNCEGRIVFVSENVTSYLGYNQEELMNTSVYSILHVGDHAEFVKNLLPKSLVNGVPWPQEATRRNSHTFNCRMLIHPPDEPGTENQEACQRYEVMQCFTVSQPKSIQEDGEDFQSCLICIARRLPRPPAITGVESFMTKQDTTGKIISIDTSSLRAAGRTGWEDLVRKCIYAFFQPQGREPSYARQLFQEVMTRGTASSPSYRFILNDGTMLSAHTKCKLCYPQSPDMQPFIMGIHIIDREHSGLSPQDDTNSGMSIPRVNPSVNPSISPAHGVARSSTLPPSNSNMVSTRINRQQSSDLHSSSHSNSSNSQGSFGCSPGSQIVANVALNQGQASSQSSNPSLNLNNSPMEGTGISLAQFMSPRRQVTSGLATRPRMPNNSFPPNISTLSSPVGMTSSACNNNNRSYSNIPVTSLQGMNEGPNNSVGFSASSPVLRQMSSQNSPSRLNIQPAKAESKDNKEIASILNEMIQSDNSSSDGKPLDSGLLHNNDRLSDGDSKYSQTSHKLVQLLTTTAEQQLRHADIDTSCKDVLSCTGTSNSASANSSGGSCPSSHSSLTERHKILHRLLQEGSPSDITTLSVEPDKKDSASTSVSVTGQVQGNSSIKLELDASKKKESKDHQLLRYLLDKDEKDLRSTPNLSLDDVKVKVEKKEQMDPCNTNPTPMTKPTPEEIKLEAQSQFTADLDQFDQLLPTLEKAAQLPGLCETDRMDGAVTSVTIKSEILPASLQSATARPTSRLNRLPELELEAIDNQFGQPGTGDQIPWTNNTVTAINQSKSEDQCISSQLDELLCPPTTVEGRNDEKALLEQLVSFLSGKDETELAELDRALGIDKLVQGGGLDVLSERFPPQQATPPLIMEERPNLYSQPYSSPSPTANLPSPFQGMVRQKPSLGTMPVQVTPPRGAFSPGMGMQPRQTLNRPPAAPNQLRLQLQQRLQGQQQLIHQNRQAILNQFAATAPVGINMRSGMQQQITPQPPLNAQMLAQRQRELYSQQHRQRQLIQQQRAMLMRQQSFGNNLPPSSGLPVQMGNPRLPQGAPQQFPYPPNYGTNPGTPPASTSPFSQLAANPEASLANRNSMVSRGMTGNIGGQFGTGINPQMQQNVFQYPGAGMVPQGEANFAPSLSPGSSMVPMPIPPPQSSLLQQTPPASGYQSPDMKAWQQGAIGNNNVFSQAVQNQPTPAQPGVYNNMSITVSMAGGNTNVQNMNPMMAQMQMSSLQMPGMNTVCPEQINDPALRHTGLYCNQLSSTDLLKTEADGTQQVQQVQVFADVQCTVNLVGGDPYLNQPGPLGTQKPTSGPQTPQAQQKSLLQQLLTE
# [20] = P. falciparum Dd2 growth inhibitors, dose response, SYBR Green, dry powder samples (AID 1159566); format: functional, cell-based;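 also: potency for growth inhibition with lower SYBR green DNA signal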
# [21] = P. falciparum ATP4 D1247Y mutant growth inhibitors, dose response, NITD609-resistant line, SYBR Green, dry powder (AID 1159571); format: functional, cell-based;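 also: parasites synchronized at ring stage by sorbitol before testing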
# [22] = P. falciparum Dd2 growth inhibitors, dose response, SYBR Green, cherry-picked samples (AID 1159567); format: functional, cell-based
# [23] = P. falciparum 3D7-ScDHODH growth inhibitors, dose response, SYBR Green, dry powder samples (AID 1159570); format: functional, cell-based;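 also: parasite growth measured after 72 hours of compound exposure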
compound,measurement,setting,value
Cc1ccc(NC(=O)C2CCN(c3nc(C)cc(C)n3)CC2)cc1,IC50,[1],> 109 µM (inactive)
same,IC50,[2],> 83.3 µM (inactive)
COc1ccc(OC)c(Nc2nc(N)nc(-c3cc4ccccc4o3)n2)c1,IC50,H9c2,> 79 µM (inactive)
same,IC50,[3],47.8 µM (not active)
CCn1c(C(C)NC(C)=O)nc2ccccc21 (centres undefined),IC50,[3],> 93.1 µM (not active)
Nc1nc2ccccc2n1CCOc1ccc(Br)cc1,CC50,[4],39.4 µM (active)
same,IC50,cells,31.8 µM (active)
O=C(Cc1c[nH]c2ccccc12)Nc1nccs1,IC50,[1],> 109 µM (inactive)
same,IC50,[2],> 83.3 µM (inactive)
COc1cccc(N2CCN(c3[nH]cnc4c5ccccc5nc3-4)CC2C)c1 (centres undefined),EC50,[5],3.01 µM (active)
same,CC50,[6],7.28 µM (active)
same,EC50,[7],3.33 µM (active)
Cc1cc(C(=O)Nc2cccc(C(=O)O)c2)oc1C,EC50,[8],6.56 µM (active)
same,EC50,[9],< 0.2 µM (active)
same,EC50,HT-1080,> 50 µM (not active)
same,IC50,[10],> 100 µM (not active)
same,AC50,[11],4.35 µM (active)
N=c1c2c(-c3ccccc3)c(-c3ccccc3)n(Cc3ccccc3)c2ncn1CCCO,AC50,[12],7.08 µM (active)
same,IC50,Protein skinhead-1,> 100 µM (inactive)
same,EC50,[13],> 60 µM (inconclusive)
same,EC50,[14],1.26 µM (active)
CCCn1c(=S)[nH]c2cc(C(=O)N3CCc4ccccc4C3)ccc2c1=O,IC50,[1],> 109 µM (inactive)
same,IC50,[2],> 83.3 µM (inactive)
O=C(CCCn1c(=O)[nH]c2cc(Cl)ccc2c1=O)NCCCN1CCCC1,IC50,[1],> 109 µM (inactive)
same,IC50,[2],> 83.3 µM (inactive)
CC(C)(C)c1nc(N2CCN(C(=O)c3ccco3)CC2)c2nnn(Cc3ccccc3Cl)c2n1,EC50,[5],5.38 µM (active)
same,AC50,[15],3.44 µM (active)
same,EC50,[7],4.47 µM (active)
CNCCCOc1cccc(OC(C)C)c1,AC50,[16],17.3 µM (active)
CCN(CC)CCCNC(=O)c1ccc2c(SCC(=O)O)c3c(nc2c1)CCC3,EC50,[17],> 79.4 µM (not active)
same,EC50,[18],> 79.4 µM (not active)
same,EC50,[19],> 79.4 µM (not active)
COc1ccc(-c2c3c([nH]c(=S)c2C#N)CCC3)cc1,IC50,[3],17.6 µM (not active)
Cc1ccccc1-n1c(S)nnc1-c1ccco1,EC50,[17],> 79.4 µM (not active)
same,EC50,[18],> 79.4 µM (not active)
same,EC50,[19],> 79.4 µM (not active)
C/C=C/c1ccc([C@H]2[C@@H](CO)N[C@@H]2CN(CC)C(=O)CN2CCOCC2)cc1,AC50,[12],47.6 µM (active)
CN(C)/C=N/C(=O)/C(C#N)=C1\CCc2ccccc2N1,IC50,[3],> 93.1 µM (not active)
COCCCNC(=O)c1c(N)n(/N=C/c2cccs2)c2nc3ccccc3nc12,EC50,[5],> 20 µM (not active)
same,EC50,[7],9.78 µM (active)
COc1ccc(C#Cc2ccc3c(c2)O[C@@H](CN(C)C(=O)Nc2cccc(OC)c2)[C@H](C)CN([C@H](C)CO)S3(=O)=O)cc1,AC50,[20],0.662 µM (active)
same,AC50,[21],0.986 µM (active)
same,AC50,[22],1.5 µM (active)
same,AC50,[23],0.799 µM (active)
C[C@H](CO)N1C[C@H](C)[C@H](CN(C)S(=O)(=O)c2ccc(C#N)cc2)OCc2ccccc2-c2c(n(C)c3ccccc23)C1=O,AC50,[20],0.314 µM (active)
same,AC50,[21],0.41 µM (active)
same,AC50,[22],1.25 µM (active)
same,AC50,[23],0.563 µM (active)
COc1ccc(-c2cc3nnc(-c4ccccc4)nc3s2)cc1,EC50,[9],0.27 µM (active)
same,EC50,HT-1080,> 50 µM (not active)
same,IC50,[10],> 100 µM (not active)
NC(N)=Nc1nc(CSCCC(N)=NS(N)(=O)=O)cs1 [FAMOTIDINE],EC50,[17],> 79.4 µM (not active)
same,EC50,[18],> 79.4 µM (not active)
same,EC50,[19],> 79.4 µM (not active)
